The test system of data set [1] is SARS-CoV-2. Kind of data set: microbe, parasite or virus in culture. It counts as cell-based, SARS-CoV-2 B1.1 lineage. Particulars: for IC50: Severe acute respiratory syndrome coronavirus 2, Vero C1008, 72 h, read-out: SARS-CoV-2 IC50.
The nature of another data set: in vitro. The conditions noted are these: monkey.
On the set-up of data set [2]: method as in PMID 34116325. The conditions noted are these: cited from earlier work.
On the set-up of data set [3]: method as in PMID 29194347, PMID 37238706. The conditions noted are these: cited from earlier work.
The conditions of data set [4]: microsomes and hepatocytes of different species; cited from earlier work.
The conditions of data set [5]: mice, i.p.; cited from earlier work.
For data set [6] the following is noted: non-human primates; cited from earlier work.
A further data set has as its system Dengue virus type 2. Kind of data set: Activity against Dengue virus type 2 (unpublished results). It counts as cell-based.
Data set [7] addresses α4β2 subtype of the nicotinic receptor. Further details: method as in PMID 12088062. Particulars: cited from earlier work.
Data set [8] deals with SARS-CoV-2. Particulars: reference compound; cited from earlier work.
Data set [9] relates to SARS-CoV-2. Further details: method as in PMID 37367224. Particulars: lung epithelium cell line; cited from earlier work.
In data set [10] the test system is SARS-CoV-2. The conditions noted are these: read-out: IC50 against SARS-CoV-2; cited from earlier work.

The structures appear in SMILES notation. Where two headings read alike, the source gives them in different places.

As for `CCN(CC)CCCC(C)Nc1ccnc2cc(Cl)ccc12` (stereo not shown) [CQ, chloroquine, reference compound], the IC50 with SARS-CoV-2 [1] stood at 8.5 µM. This compound showed a CC50 in the data set “in vitro” of 96.3 µM.
With `Clc1ccc(Nc2cc3nc4ccccc4n(-c4ccc(Cl)cc4)c-3cc2=NCC2CCCN3CCCCC23)cc1` (stereo not shown) [Compound 1], in the data set with SARS-CoV-2 [1], the “SAR analysis summary of anti-SARS-CoV-2 activity” value (“SAR analysis summary” for short) was “Inactive/ Cytotoxic” and the IC50 is over 2 µM. For the same compound, the CC50 in the data set “in vitro” was found to be 3.14 µM.
As for `Cc1ccc(Nc2cc3nc4ccccc4n(-c4ccc(C)cc4)c-3cc2=NCC2CCCN3CCCCC23)cc1` (stereo not shown) [Compound 2], the IC50 with SARS-CoV-2 [1] stood at 1.5 µM. Further, in the data set “in vitro”, the CC50 was 2.81 µM.
For `c1ccc(Nc2cc3nc4ccccc4n(-c4ccccc4)c-3cc2=NCCCCC23CCCCN2CCCC3)cc1` [Compound 3], in that order: 4 µM and 10.5 µM.
As for `Fc1ccc(Nc2cc3nc4ccccc4n(-c4ccc(F)cc4)c-3cc2=NCCCCC23CCCCN2CCCC3)cc1` [Compound 4], in the data set with SARS-CoV-2 [1], the “SAR analysis summary” value was “Inactive/ Cytotoxic” and the IC50 is over 1 µM. The same compound had a CC50 in “in vitro” of 2.19 µM.
For `c1ccc(Nc2cc3nc4ccccc4n(-c4ccccc4)c-3cc2=NCC23CCCN2CCC3)cc1` [Compound 5], in that order: “Inactive/ Cytotoxic”, over 2 µM and 3.2 µM.
For `Clc1ccc(Nc2cc3nc4ccccc4n(-c4ccc(Cl)cc4)c-3cc2=NCC23CCCN2CCC3)cc1` [Compound 6], in that order: “Inactive/ Cytotoxic”, over 3 µM and 5.58 µM.
`CN1CCN(CCN=c2cc3n(-c4ccc(Cl)cc4)c4ccccc4nc-3cc2Nc2cccnc2)CC1` [Compound 7]: in data set [2], the water solubility entry was “highly water soluble”. Further, the “SAR analysis summary” value in the data set on SARS-CoV-2 [1] was “Inactive/ Cytotoxic”. For the same compound, in the data set with SARS-CoV-2 [1] (Severe acute respiratory syndrome coronavirus 2, Vero C1008, read-out: % inhibition of viral replication), the inhibition at 1 µM is 20.5%. In addition, the CC50 in the data set “in vitro” was found to be 2.62 µM.
For `Clc1ccc(-n2c3cc(=NCCN4CCOCC4)c(Nc4cccnc4)cc-3nc3ccccc32)cc1` [Compound 8], the “SAR analysis summary” value with SARS-CoV-2 [1] is “Inactive/ Cytotoxic”. In the data set “in vitro”, this compound gave a CC50 of 1.74 µM.
`Clc1ccc(-n2c3cc(=NCCCN4CCCCC4)c(Nc4cccnc4)cc-3nc3ccccc32)cc1` [Compound 9]: the “SAR analysis summary” value in the data set on SARS-CoV-2 [1] is reported as “Inactive/ Cytotoxic”. Moreover, in the data set “in vitro”, the CC50 was determined as 1.88 µM.
On to `Clc1ccc2c(NC[C@@H]3CCCN4CCCC[C@H]34)ccnc2c1` [Compound 10], for which, in data set [3], the oral bioavailability result is on record as “excellent” and the volume of distribution entry is “high”. Besides, the IC50 with SARS-CoV-2 [1] is 2.2 µM. In data set [4], the metabolic stability result was “good”. In addition, in data set [5], the “maximum tolerated dose, MTD” value is given as “greater than 100 mg/Kg”. For the same compound, in the data set “in vitro”, the CC50 was 44 µM.
Consider `Clc1ccc2c(NCC34CCCN3CCC4)ccnc2c1` [Compound 11], for which, in [3], the oral bioavailability entry is reported as “excellent” and the volume of distribution result was “high”. Moreover, the IC50 with SARS-CoV-2 [1] was 3.7 µM. For the same compound, in [4], the metabolic stability result is given as “good”. In addition, in data set [6], the “oral MTD” value is 50 mg/kg/day. Further, the “maximum tolerated dose, MTD” value in data set [5] is “greater than 100 mg/Kg”. For the same compound, the CC50 in the data set “in vitro” turned out to be 74.5 µM.
In the case of `CCN(CC)CCCn1c(Cc2ccccc2)nc2cc(/C(C)=N\NC(N)=O)ccc21` [Compound 12], in the data set on SARS-CoV-2 [1], the “SAR analysis summary” value is on record as “Inactive/ Cytotoxic” and the IC50 was over 100 µM. The compound further had a CC50 in “in vitro” of over 100 µM.
On to `CCN(CC)CCCn1c(Cc2ccccc2)nc2cc(C(C)=NNC(N)=S)ccc21` [Compound 13], for which the IC50 in the data set with SARS-CoV-2 [1] was determined as 20 µM. In addition, the CC50 in the data set “in vitro” is 96.1 µM.
On the same counts, the results for `CC(=NNC(N)=S)c1ccc2c(c1)nc(Cc1ccccc1)n2C[C@@H]1CCCN2CCCC[C@H]12` [Compound 14, 2-(1-{2-Benzyl-1-[((1S,9aR)-octahydro-2H-quinolizin-1-yl)methyl]-1H-benzo[d]imidazol-5-yl}-ethylidene)hydrazine-1-carbothioamide] are 12.2 µM and 70 µM.
Regarding `CCN(CC)CCCn1c(Cn2nnc3ccccc32)nc2cc(C(C)=NNC(N)=S)ccc21` [Compound 15, 2-(1-{2-[(1H-Benzo[d][1,2, 3]triazol-1-yl)methyl]-1-[3-(N,N-diethylamino)propyl]-1H-benzo-[d]imidazol-5-yl}ethylidene)hydrazine-1-carbothioamide], the IC50 in the data set with SARS-CoV-2 [1] came out at 14.9 µM. Also, in the data set “in vitro”, the CC50 was 67.1 µM.
On the same counts, the results for `CCN(CC)CCCn1c(Cn2nnc3ccccc32)nc2cc(Cl)ccc21` [Compound 18] are 28.1 µM and 107 µM.
Consider `Cc1ccc2c(c1)nc(Cn1nnc3ccccc31)n2CC[C@@H]1CCCN2CCCC[C@H]12` [Compound 19], for which the IC50 with SARS-CoV-2 [1] was found to be 15.3 µM. This compound showed a CC50 in “in vitro” of 76.3 µM.
As to `Clc1ccc2c(c1)nc(Cn1nnc3ccccc31)n2CC[C@@H]1CCCN2CCCC[C@H]12` [Compound 20], in the data set on SARS-CoV-2 [1], the IC50 worked out at 6.95 µM. The compound further yielded a CC50 in the data set “in vitro” of 19.4 µM.
`Oc1ccc(-n2nc3ccc(C(F)(F)F)cc3n2)cc1` [Compound 21]: the “activity against SARS-CoV-2” value in the data set on SARS-CoV-2 [1] is given as “no activity”. The results for the IC50 in the data set on SARS-CoV-2 [1] and with Dengue virus type 2 were over 20 µM and 17 µM, respectively. In “in vitro”, this compound gave a CC50 of 25.4 µM.
On the same counts, the results for `CN1CCCC1=CN=Nc1cccc(Br)c1` [Compound 22] are “no activity”, over 20 µM, 24 µM and 26.8 µM.
`O=c1cccc2n1CC1CC2CN(C(=S)NC2CCCCC2)C1` (stereo not shown) [Compound 23]: the Ki in data set [7] is 2300 nM. The IC50 in the data set on SARS-CoV-2 [1] was found to be 95.6 µM. Also, in “in vitro”, the CC50 was over 100 µM.
For `CC(=O)Oc1ccccc1C(=O)Oc1ccc(-c2cc(=S)ss2)cc1` [Compound 24], in the data set with SARS-CoV-2 [1], the “activity against SARS-CoV-2” value is recorded as “no activity” and the IC50 is over 10 µM. In “in vitro”, this compound yielded a CC50 of 32.9 µM.
For the compound `CC(=O)/C=C(/C)Nc1cccc2c3c([nH]c12)CCCC3` [Compound 25], in the data set with SARS-CoV-2 [1], the IC50 amounted to 90.1 µM. The CC50 in the data set “in vitro” was over 100 µM.
In the case of `CC(C)/N=c1\cc2n(-c3ccc(Cl)cc3)c3ccccc3nc-2cc1Nc1ccc(Cl)cc1` [clofazimine], the IC50 in the data set on SARS-CoV-2 [8] is 310 nM. The “reduction in viral RNA load” value in the data set with SARS-CoV-2 [9] is 25%.
With `CCN(CCO)CCCC(C)Nc1ccnc2cc(Cl)ccc12` (stereo not shown) [hydroxychloroquine], the IC50 in the data set with SARS-CoV-2 [10] is 720 nM.

Values taken from paper PMC11676875, “In Vitro Screening of an In-House Library of Structurally Distinct Chemotypes Towards the Identification of Novel SARS-CoV-2 Inhibitors” (Pharmaceuticals, 2024).
